From article PMC8999638, “Identification of Entry Inhibitors against Delta and Omicron Variants of SARS-CoV-2” (International Journal of Molecular Sciences, 2022)
Values joined by “and” are separate entries in the source; they are usually repeats but may differ in a detail not shown here. Equal values may be shown once. Where a name gives a salt, the structure may show the parent alone. Read-outs that look alike come from different tables or passages of the source.

Key:
NanoBiT = assay: Negative screening HiBiT assay (NanoBiT activity); type: cell-based; details: for Negative Screening HiBiT Assay % Inhibition (20 μM): 20 μM drug; for Negative Screening HiBiT Assay % Inhibition (100 μM): 100 μM drug; for Negative Screening HiBiT Assay INHIBIT NanoBiT: >70% inhibition in 100 μM, then including >35% inhibition at 20 μM
SARS-CoV-2 = assay: microbe, parasite or virus in culture; type: cell-based; details: 10 μM
[1] = system: spike-based pseudovirus (wild type) on SmBiT-ACE2 HeLa cells; assay: microbe, parasite or virus in culture; type: cell-based, SARS-CoV-2; details: read-out: EC50 Pseudovirus Wild Type
[2] = target: RBD-ACE2 attachment (RBD of viral spike protein and ACE2 receptor) (Severe acute respiratory syndrome coronavirus 2, UniProt P0DTC2); assay: cell-based; parameters: species or system SARS-CoV-2; human; details: for inhibition at 20 µM / inhibition at 100 µM: HeLa; for inhibition at 20 µM: read-out: Positive Screening RBD Attachment Assay % Inhibition (20 μM); for inhibition at 100 µM: read-out: Positive Screening RBD Attachment Assay % Inhibition (100 μM)
in vitro = details: African green monkey
VERO E6 cells = details: for CC50: read-out: VeroE6 CC50, VERO E6 cells, CellTiter-Glo
[3] = VeroE6 CC50, VERO E6 cells, CellTiter-Glo

## CC[C@H](C)[C@H]1O[C@]2(CC[C@@H]1C)C[C@@H]1C[C@@H](C/C=C(\C)[C@@H](O[C@H]3C[C@H](OC)[C@@H](O[C@H]4C[C@H](OC)[C@@H](O)[C@H](C)O4)[C@H](C)O3)[C@@H](C)/C=C/C=C3\CO[C@@H]4[C@H](O)C(C)=C[C@@H](C(=O)O1)[C@]34O)O2 [Ivermectin]
NanoBiT
  Negative Screening HiBiT Assay % Inhibition (20 μM): 0%
  Negative Screening HiBiT Assay % Inhibition (100 μM): 4%
  Negative Screening HiBiT Assay INHIBIT NanoBiT: No
SARS-CoV-2
  blocked SARS-CoV-2 infection (PRNT): 60%
[1]; Pseudovirus, HeLa
  EC50: 5.9 µM
[2]
  Positive Screening RBD Attachment Assay Dose Response: Yes
  inhibition at 20 µM: 29%
  inhibition at 100 µM: 68%
[2]; read-out: EC50 RBD Attachment
  EC50: 22.8 µM
In vitro; [3]
  CC50: 11.9 µM

## Clc1ccc(COC(Cn2ccnc2)c2ccc(Cl)cc2Cl)c(Cl)c1 (centres unmarked) [Miconazole nitrate]
VERO E6 cells
  CC50: 16.9 µM
NanoBiT
  Negative Screening HiBiT Assay % Inhibition (20 μM): 3%
  Negative Screening HiBiT Assay % Inhibition (100 μM): 12%
  Negative Screening HiBiT Assay INHIBIT NanoBiT: No

## Clc1ccc(COC(Cn2ccnc2)c2ccc(Cl)cc2Cl)c(Cl)c1 (centres unmarked) [Miconazole]
NanoBiT
  Negative Screening HiBiT Assay % Inhibition (20 μM): 6%
  Negative Screening HiBiT Assay % Inhibition (100 μM): 15%
  Negative Screening HiBiT Assay INHIBIT NanoBiT: No
In vitro; [3]
  CC50: 14 µM

## COC(=O)C1=C(C)NC(C)=C(C(=O)OCCN(C)Cc2ccccc2)C1c1cccc([N+](=O)[O-])c1 (centres unmarked) [Nicardipine hydrochloride]
NanoBiT
  Negative Screening HiBiT Assay % Inhibition (20 μM): 64%
  Negative Screening HiBiT Assay % Inhibition (100 μM): 88%
  Negative Screening HiBiT Assay INHIBIT NanoBiT: Yes
[2]
  Positive Screening RBD Attachment Assay Dose Response: Yes
  inhibition at 20 µM: 58%
  inhibition at 100 µM: 86%

## COCCOC(=O)C1=C(C)NC(C)=C(C(=O)OC(C)C)C1c1cccc([N+](=O)[O-])c1 (centres unmarked) [Nimodipine]
NanoBiT
  Negative Screening HiBiT Assay % Inhibition (20 μM): 79%
  Negative Screening HiBiT Assay % Inhibition (100 μM): 97%
  Negative Screening HiBiT Assay INHIBIT NanoBiT: Yes
[2]
  Positive Screening RBD Attachment Assay Dose Response: Yes
  inhibition at 20 µM: 64%
  inhibition at 100 µM: 96%

## CC(=O)Oc1ccccc1C(=O)Nc1ncc([N+](=O)[O-])s1 [Nitazoxanide]
NanoBiT
  Negative Screening HiBiT Assay % Inhibition (20 μM): 77%
  Negative Screening HiBiT Assay % Inhibition (100 μM): 95%
  Negative Screening HiBiT Assay INHIBIT NanoBiT: Yes
[2]
  Positive Screening RBD Attachment Assay Dose Response: Yes
  inhibition at 20 µM: 69%
  inhibition at 100 µM: 93%

## OCCOc1ccc(/C(=C(/CCCl)c2ccccc2)c2ccccc2)cc1 [Ospemifene]
VERO E6 cells
  Cytotoxicity to VeroE6 cells: not toxic
NanoBiT
  Negative Screening HiBiT Assay % Inhibition (20 μM): 3%
  Negative Screening HiBiT Assay % Inhibition (100 μM): 8%
  Negative Screening HiBiT Assay INHIBIT NanoBiT: No
[2]
  Positive Screening RBD Attachment Assay Dose Response: Yes
  inhibition at 20 µM: 39%
  inhibition at 100 µM: 68%
[2]; EC50 RBD Attachment
  EC50: 56.2 µM
In vitro; VeroE6 CC50
  CC50: > 100 µM

## Nc1ccc(/N=N/c2ccccc2)c(N)n1 [Phenazopyridine hydrochloride]
NanoBiT
  Negative Screening HiBiT Assay % Inhibition (20 μM): 48%
  Negative Screening HiBiT Assay % Inhibition (100 μM): 83%
  Negative Screening HiBiT Assay INHIBIT NanoBiT: Yes
[2]
  Positive Screening RBD Attachment Assay Dose Response: Yes
  inhibition at 20 µM: 52%
  inhibition at 100 µM: 91%

## CCCCCCCCCCCCCCCC[N+](C)(C)CCN(Cc1ccc(OC)cc1)c1ncccn1 [Thonzonium Bromide]
NanoBiT
  Negative Screening HiBiT Assay % Inhibition (20 μM): 36%
  Negative Screening HiBiT Assay % Inhibition (100 μM): 52%
  Negative Screening HiBiT Assay INHIBIT NanoBiT: Yes
[2]
  Positive Screening RBD Attachment Assay Dose Response: Yes
  inhibition at 20 µM: 93%
  inhibition at 100 µM: 99%

## Gramicidin
VERO E6 cells
  CC50: 3.9 µM
NanoBiT
  Negative Screening HiBiT Assay % Inhibition (20 μM): 0%
  Negative Screening HiBiT Assay % Inhibition (100 μM): 35%
  Negative Screening HiBiT Assay INHIBIT NanoBiT: No
[1]
  EC50: ~1.2 µM and 1.2 µM
[2]
  Positive Screening RBD Attachment Assay % Inhibition (100 μM): 95%
  Positive Screening RBD Attachment Assay Dose Response: Yes
[2]; read-out: EC50 RBD Attachment
  EC50: 5.3 µM
